{
  "source": "patent US20040241225A1",
  "about": "“Modulation of vitamin storage” (priority 2001, published 2004)",
  "key": {"[1]": {"assay_type": "physicochemical", "description": "An extraction method was developed which gave the maximum recovery of TP. The stability of TP to the extraction methodology was tested by subjecting pure TP to the extraction protocol, virtually 100% recovery was obtained."}, "[2]": {"assay": "Solubility of α-tocopheryl phosphate", "assay_type": "physicochemical"}, "[3]": {"assay": "Liver TP level 24 h after a single dose of TP or tocopheryl acetate, quantitated by ESMS", "conditions": "rat, 24 h after administration"}},
  "data": [
    {"substance": "α-tocopheryl phosphate [TP]", "values": [
      {"measurement": "resistance to hydrolysis", "setting": "[1]; alkaline and acid hydrolysis conditions of standard α-tocopherol extraction procedures", "value": "resistant to all of the alkaline and acid hydrolysis conditions"},
      {"measurement": "resistance to oxidation", "setting": "[1]; conditions of the standard colorimetric α-tocopherol analysis", "value": "resistant to oxidation"},
      {"measurement": "cleavage of the phosphate bond", "setting": "[1]; refluxing under strongly alkaline or acidic conditions in excess of 24 hours", "value": "does not lead to any cleavage of the phosphate bond"},
      {"measurement": "solubility in water", "setting": "[2]; high pH", "value": "soluble"},
      {"measurement": "solubility in organic solvents", "setting": "[2]; low pH", "value": "soluble"},
      {"measurement": "liver TP", "setting": "[3]; i.v., single dose 3 mg/kg", "value": 17, "unit": "ug ug/gm"},
      {"measurement": "liver TP", "setting": "[3]; i.v., single dose 10 mg/kg", "value": 24, "unit": "ug ug/gm"},
      {"measurement": "liver TP", "setting": "[3]; i.v., single dose 30 mg/kg", "value": 28, "unit": "ug ug/gm"},
      {"measurement": "liver TP", "setting": "[3]; i.v., single dose 100 mg/kg", "value": 27, "unit": "ug ug/gm"},
      {"measurement": "liver TP", "setting": "[3]; oral, single dose 10 mg/kg", "value": 19.18, "unit": "ug ug/gm"},
      {"measurement": "liver TP", "setting": "[3]; oral, single dose 30 mg/kg", "value": 18.35, "unit": "ug ug/gm"}
    ]}
  ]
}
